Among the test systems are K562; UACC-62; OVCAR-3; DU-145; SNB-75; SNB-19; RPMI-8226; OVCAR-8; SK-OV-3; SW-620; U-251; HOP-62; COLO 205; NCI-H226; A498; 786-0; NCI-H460; RXF 393; TK-10; LOX IMVI.
What all share (assay): DTP human tumour cell line panel, 48 h

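Growth conditions: 96-well plates. Treatment: test compound, 48 hours, 5 concentrations. Analysis: linear interpolation between bracketing concentrations; unreached endpoints set to highest concentration. Abbreviation: GI50, concentration required for 50% inhibition of growth.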 The source made the active and inactive calls. Cut-off read from the data, not from the text of the source: active = GI50 up to about 1.1 µM and inactive = higher. Where a SMILES comes first, the peptide text is derived from it. [ ]: non-standard residue; d: D form. The star is where a group is joined. Phe(4-NO2) = N[CH](Cc1ccc([N+](=O)[O-])cc1)C(=O)O; Boc = CC(C)(C)OC(=O)*; OtBu = CC(C)(C)O*

For orientation: GI50 means the concentration that inhibits growth by half. For `Nc1ncnc2c1ncn2CC(O)C(=O)O` (stereo not given), the GI50 in the assay with K562, with UACC-62, with OVCAR-3, in the assay with DU-145, in the assay on SNB-75 and in the assay on SNB-19 was > 100 µM (inactive) in each case. For the same molecule, the GI50 in the assay on RPMI-8226, in the assay on OVCAR-8, in the assay with SK-OV-3, with SW-620, in the assay with U-251 and in the assay with HOP-62 was > 100 µM (inactive) in each case. The GI50 with COLO 205, with NCI-H226, in the assay on A498, in the assay on 786-0, in the assay with NCI-H460 and with RXF 393 was > 100 µM (inactive) in each case. The GI50 with TK-10 and in the assay on LOX IMVI was > 100 µM (inactive) throughout.
In the case of `CCCCCCCCCCCCCC(=O)O[C@H]1CC[C@H](NC(=O)[C@H](OC)[C@H](O)[C@@H](O)[C@H](O)/C=C/C(C)C)C(=O)NC1` [BENGAMIDE A], the GI50 with K562 is 0.00512 µM (active); in the assay with UACC-62, 0.00512 µM (active); with OVCAR-3 it was 0.0147 µM (active); in the assay on DU-145, 0.731 µM (active); in the assay with SNB-75, 0.0353 µM (active); in the assay on SNB-19, 0.0115 µM (active). For the same molecule, the GI50 in the assay with RPMI-8226 is 0.00634 µM (active); with OVCAR-8, 0.00828 µM (active); in the assay with SK-OV-3, 0.149 µM (active); in the assay on SW-620, 0.00512 µM (active); with U-251, 0.00705 µM (active); in the assay on HOP-62 it was 0.235 µM (active). Also, the GI50 with COLO 205 is 0.00512 µM (active); in the assay on NCI-H226 it was 0.145 µM (active); in the assay with A498 it was 0.0389 µM (active); with 786-0, 0.00512 µM (active); with NCI-H460, 0.00512 µM (active); in the assay on RXF 393, 0.175 µM (active). Also, the figures for the concentration for 50% growth inhibition (GI50) in the assay on TK-10 and in the assay with LOX IMVI were 0.0726 µM (active) and 0.00512 µM (active), respectively.
For the molecule `CC(=O)OCCN1c2ccccc2Sc2cnccc21`, the GI50 in the assay on K562 is > 10 µM (inactive); in the assay on UACC-62, > 10 µM (inactive); with OVCAR-3 it was > 10 µM (inactive); in the assay on DU-145 it was > 10 µM (inactive); in the assay with SNB-75, 9.38 µM (inactive); with SNB-19 it was > 10 µM (inactive). The GI50 in the assay with RPMI-8226, with OVCAR-8, with SK-OV-3, in the assay on SW-620, in the assay with U-251 and with HOP-62 was > 10 µM (inactive) each time. Besides, the GI50 in the assay on COLO 205, in the assay with NCI-H226, with A498, in the assay on 786-0, in the assay with NCI-H460 and with RXF 393 was > 10 µM (inactive) throughout. Further, the GI50 in the assay on TK-10 and with LOX IMVI was > 10 µM (inactive) throughout.
Regarding `COC(=O)C(Cc1ccc([N+](=O)[O-])cc1)NC(=O)C(CC(=O)OC(C)(C)C)NC(=O)OC(C)(C)C` (stereo not given) (Boc-Asp(OtBu)-[Phe(4-NO2)]-OMe; configuration not given here), the GI50 is > 100 µM (inactive) with K562; > 100 µM (inactive) with UACC-62; > 100 µM (inactive) with OVCAR-3; > 100 µM (inactive) in the assay on DU-145; 55.5 µM (inactive) in the assay with SNB-75; > 100 µM (inactive) with SNB-19. The GI50 in the assay on RPMI-8226 is 40 µM (inactive); in the assay with OVCAR-8, 38.1 µM (inactive); in the assay with SK-OV-3, > 100 µM (inactive); in the assay on SW-620, > 100 µM (inactive); with U-251, > 100 µM (inactive); in the assay with HOP-62, > 100 µM (inactive). Moreover, the GI50 in the assay with COLO 205 is 30.2 µM (inactive); in the assay on NCI-H226 it was > 100 µM (inactive); in the assay on A498 it was > 100 µM (inactive); in the assay with 786-0 it was > 100 µM (inactive); with NCI-H460 it was > 100 µM (inactive); in the assay with RXF 393, > 100 µM (inactive). Besides, the GI50 is > 100 µM (inactive) with TK-10 and 20.9 µM (inactive) in the assay on LOX IMVI.
Regarding `C=CC(=O)N1C/C(=C\c2ccccc2)C(=O)/C(=C/c2ccccc2)C1`, the GI50 with K562 was 0.265 µM (active); in the assay on UACC-62, 1.19 µM (inactive); in the assay with OVCAR-3, 1.48 µM (inactive); with DU-145 it was 5.13 µM (inactive); in the assay with SNB-75, 3.24 µM (inactive); in the assay with SNB-19, 2.54 µM (inactive). Also, the GI50 with RPMI-8226 is 0.0462 µM (active); in the assay on OVCAR-8, 1.3 µM (inactive); in the assay with SK-OV-3, 2.58 µM (inactive); with SW-620, 0.259 µM (active); with U-251, 0.877 µM (active); with HOP-62, 2.33 µM (inactive). For the same molecule, the GI50 in the assay with COLO 205 was 1.83 µM (inactive); with NCI-H226 it was 3.85 µM (inactive); in the assay on A498, 2 µM (inactive); in the assay on 786-0 it was 1.06 µM (active); with NCI-H460, 1.89 µM (inactive); in the assay on RXF 393 it was 2.15 µM (inactive). In addition, the values for the GI50 in the assay with TK-10 and with LOX IMVI were 2.88 µM (inactive) and 0.254 µM (active), respectively.
For the molecule `CCOC(=O)c1c(N2CCOCC2)ncn(-c2cccc(Cl)c2)c1=O`, the GI50 in the assay on K562, with UACC-62, in the assay on OVCAR-3, in the assay with DU-145, in the assay on SNB-75 and with SNB-19 was > 100 µM (inactive) throughout. Further, the GI50 in the assay on RPMI-8226, in the assay on OVCAR-8, in the assay with SK-OV-3, in the assay with SW-620, in the assay with U-251 and in the assay on HOP-62 was > 100 µM (inactive) in each case. Moreover, the GI50 in the assay with COLO 205 is > 100 µM (inactive); in the assay with NCI-H226, > 100 µM (inactive); in the assay on A498, 0.159 µM (active); in the assay with 786-0 it was > 100 µM (inactive); with NCI-H460 it was > 100 µM (inactive); in the assay on RXF 393, > 100 µM (inactive). Further, the GI50 in the assay with TK-10 and in the assay with LOX IMVI was > 100 µM (inactive) throughout.
For `S=C(Nc1ccc(/N=N/c2ccccc2)cc1)SCc1ccccc1`, the GI50 with K562 was 19.5 µM (inactive); in the assay with UACC-62, 17.8 µM (inactive); in the assay with OVCAR-3, 15.6 µM (inactive); in the assay on DU-145, 15.9 µM (inactive); in the assay with SNB-75 it was 18.4 µM (inactive); in the assay on SNB-19, 18.5 µM (inactive). Further, the GI50 with RPMI-8226 is 5.04 µM (inactive); with OVCAR-8, 7.35 µM (inactive); in the assay with SK-OV-3 it was 38.8 µM (inactive); with SW-620 it was 20.6 µM (inactive); in the assay on U-251 it was 16.2 µM (inactive); in the assay on HOP-62 it was 20.2 µM (inactive). The GI50 in the assay with COLO 205 was 23.1 µM (inactive); in the assay on NCI-H226, 18.9 µM (inactive); in the assay on A498, 19.9 µM (inactive); in the assay with 786-0, 17.8 µM (inactive); in the assay on NCI-H460 it was 20.2 µM (inactive); in the assay on RXF 393, 19.6 µM (inactive). The GI50 is 12.5 µM (inactive) with TK-10 and 18.7 µM (inactive) in the assay with LOX IMVI.
With `Nc1ccccc1.O=P(O)(OP(=O)(O)c1ccccc1)c1ccccc1`, the GI50 in the assay on K562, in the assay with UACC-62, in the assay on OVCAR-3, in the assay with DU-145, in the assay with SNB-75 and in the assay with SNB-19 was > 100 µM (inactive) in each case. The GI50 in the assay on RPMI-8226, in the assay with OVCAR-8, in the assay with SK-OV-3, in the assay with SW-620, with U-251 and in the assay with HOP-62 was > 100 µM (inactive) in each case. For the same molecule, the GI50 with COLO 205, in the assay with NCI-H226, in the assay on A498, in the assay with 786-0, in the assay on NCI-H460 and in the assay on RXF 393 was > 100 µM (inactive) throughout. The GI50 in the assay with TK-10 and in the assay with LOX IMVI was > 100 µM (inactive) throughout.
In the case of `Cn1c(O)c(C(=O)Nc2ccc([N+](=O)[O-])cc2)c(=O)n(C)c1=S`, the GI50 with K562 was 3.53 µM (inactive); in the assay on UACC-62 it was 1.23 µM (inactive); in the assay with OVCAR-3 it was 2.37 µM (inactive); with DU-145, 2.02 µM (inactive); in the assay with SNB-75, 1.63 µM (inactive); in the assay on SNB-19 it was 2.16 µM (inactive). Further, the GI50 was 3.15 µM (inactive) with RPMI-8226; 2.14 µM (inactive) in the assay with OVCAR-8; 3.64 µM (inactive) in the assay on SK-OV-3; 3.49 µM (inactive) in the assay with SW-620; 2.23 µM (inactive) with U-251; 1.23 µM (inactive) with HOP-62. Further, the GI50 with COLO 205 was 3.31 µM (inactive); in the assay on NCI-H226, 4.33 µM (inactive); with A498 it was 0.499 µM (active); in the assay with 786-0, 2.67 µM (inactive); in the assay on NCI-H460, 2.82 µM (inactive); in the assay with RXF 393 it was 1.12 µM (active). The GI50 in the assay with TK-10 was 2.77 µM (inactive); with LOX IMVI, 2.69 µM (inactive).
For `CCN(CC)CCCNc1nncc2cc3c([nH]c4ccc(OC)cc43)c(C)c12`, the GI50 with K562 is 3.34 µM (inactive); in the assay with UACC-62, 17.4 µM (inactive); with OVCAR-3 it was 7.05 µM (inactive); in the assay on DU-145, 4.03 µM (inactive); in the assay on SNB-75 it was 9.59 µM (inactive); in the assay with SNB-19, 5.97 µM (inactive). The GI50 in the assay on RPMI-8226 is 6.84 µM (inactive); with OVCAR-8, 3.98 µM (inactive); in the assay on SK-OV-3, 9.64 µM (inactive); with SW-620, 4.61 µM (inactive); with U-251, 3.69 µM (inactive); with HOP-62, 4.23 µM (inactive). The GI50 with COLO 205 is 7.26 µM (inactive); with NCI-H226 it was 7.41 µM (inactive); with A498, 16.4 µM (inactive); in the assay with 786-0, 4.13 µM (inactive); with NCI-H460, 3.63 µM (inactive); in the assay on RXF 393, 5.81 µM (inactive). For the same molecule, the GI50 with TK-10 is 15.3 µM (inactive); with LOX IMVI, 3.84 µM (inactive).

For the origin of these results see ChEMBL document CHEMBL1201862, “PubChem BioAssay data set” (2004).
